From article PMC5787466, “Accelerated bottom-up drug design platform enables the discovery of novel stearoyl-CoA desaturase 1 inhibitors for cancer therapy” (Oncotarget, 2017) come the findings set out here.

Data set [1] deals with A498. The data set is described as follows: Proliferation dose-response IC50, A498. Format: cell-based. The following applies: Homo sapiens, proliferative IC50, linear regression modeling of dose-response. The method, then: Error bars indicate standard deviation for n=2 replicates. […] To evaluate inhibition of SCD1 by these molecules, we used LC/MS to quantify changes in SCD1-catalyzed conversion of stearoyl-CoA to oleoyl-CoA in response to drug treatments in vitro using SCD1 protein extracted from murine liver (Figure 3c, Supplementary Figure 2g). […] Synthesis routes and spectral data including NMR and MS are also provided (Supplementary Figures 3-6).
Cells were seeded at 5,000 cells/well in clear-bottom 96-well plates in triplicate. Drug treatment was applied at 1:1000 in reduced serum conditions (3%). […] Alternatively, cells were plated 2x10^5/well in 12-well plates (Genesee Scientific) in triplicate prior to drug treatment. After 120-hour treatment, cell number was established using a Coulter Particle Counter (Beckman). Oleic acid-albumin (Sigma Aldrich) was added to media at 5µM, and was applied adjuvant to drug treatment. Drug stocks were prepared in DMSO (Sigma) at 1000x. IC50 dosing per cell line was calculated using CalcuSyn analytical software.

Data set [2] concerns the target T1, SCD1 protein extracted from murine liver (Mus musculus, UniProt P13516).
T1 construct: Microsomes were isolated from murine liver using Microsome Isolation Kit (BioVision); from tissue; host or cells: murine liver microsomes
T1 sequence (P13516 1-355): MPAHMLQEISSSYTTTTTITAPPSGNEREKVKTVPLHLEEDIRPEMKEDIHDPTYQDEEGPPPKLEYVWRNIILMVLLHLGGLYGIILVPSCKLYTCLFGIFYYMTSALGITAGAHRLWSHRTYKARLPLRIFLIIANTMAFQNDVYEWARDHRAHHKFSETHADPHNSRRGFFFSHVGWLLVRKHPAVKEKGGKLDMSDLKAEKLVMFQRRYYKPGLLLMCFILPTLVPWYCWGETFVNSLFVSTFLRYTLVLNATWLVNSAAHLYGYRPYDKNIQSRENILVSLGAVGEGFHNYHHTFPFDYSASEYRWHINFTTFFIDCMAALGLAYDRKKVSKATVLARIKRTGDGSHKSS
Put plainly: In vitro SCD1 enzymatic inhibition by LC/MS (stearoyl-CoA to oleoyl-CoA, liver microsomes). Type of data set: biochemical. The settings on record: n=2. From the text: After synthesis feasibility and cost analysis, we synthesized 38 of the selected compounds. […] To evaluate inhibition of SCD1 by these molecules, we used LC/MS to quantify changes in SCD1-catalyzed conversion of stearoyl-CoA to oleoyl-CoA in response to drug treatments in vitro using SCD1 protein extracted from murine liver (Figure 3c, Supplementary Figure 2g). […] Synthesis routes and spectral data including NMR and MS are also provided (Supplementary Figures 3-6).
Microsomes were isolated from murine liver using Microsome Isolation Kit (BioVision) per the manufacturer protocol. […] To quantify biotransformation of ^13C18-stearoyl CoA to ^13C18-oleoyl CoA for drug treatments relative to vehicle controls, supernatants were evaluated using the LC/MS^2 acyl CoA quantitation method of Magnes et al. and adapting selected reaction monitoring (SRM) for isotope-labeled acyl CoAs. […] SRM signal areas for isotope-labeled acyl CoAs were measured relative to the heptadecanoyl CoA I.S. using XCalibur software (Thermo), and percent enzyme inhibition determined by comparing ^13C18-oleoyl CoA quantities between treatment and DMSO control assays. […]
A general note: Liver microsomes are a subcellular fraction often used to study metabolism.

The test system of data set [3] is A498 ccRCC tumors. Put plainly: Subcutaneous A498 xenograft tumor growth. Format: in vivo, athymic nude mice. The settings on record: oral administration in chow, 60, 180 or 600 mg/kg, 4.5 weeks. The procedure:
SCD1 expression correlates with poor cancer patient outcomes as evidenced by decreased survival in multiple cancers including gastric, lung, ovarian and renal cell carcinoma (Figure 5a-5b, Supplementary Figure 9a-9b). […] Our findings in thyroid carcinoma similarly present discordancy between tumor response to SCD1 inhibitors and SCD1 expression. SSI-4 was tested in vivo for anti-tumorigenic activity.
Figure 5 SSI-4 attenuates tumor progression Kaplan Meier survival analysis of indicated subtypes of (a) gastric and (b) lung cancer patients sorted into high versus low SCD1 mRNA expression, for multiple disease subtypes. Patient risk assessment at indicated mean follow-up is shown. […] (h) Tumor burden of ACHN pulmonary metastasis in response to SSI-4 treatment (180mg/kg) measured by ex vivo bioluminescent flux, given in photons/second (n=5 per group). ([…]) Tumor burden of ACHN pulmonary metastasis as determined by H&E staining of lungs from (h).
A498 cells were injected subcutaneously in the flank of athymic nude mice at 1x10^6/mouse. […] Tumor burden was measured using calipers. […] Once therapy was completed, lung tissue was harvested and analyzed for tumor burden via ex vivo bioluminescent imaging, and hematoxylin and eosin (H&E) staining of formalin-fixed, paraffin-embedded lung tissue. […]

Data set [4] can be described thus: Seven-day oral toxicology study (body weight, serum chemistry). Format: in vivo, Sprague Dawley rats. The method, then:
. […] Chronic treatment at the highest dose in tumor-bearing animals appeared to be well tolerated, with ‹10% reduction in body mass even at the highest dose of 600mg/kg after 4.5 weeks of daily treatment (Supplementary Figure S9d).
Figure 7 SSI-4 has a favorable toxicity profile (a-b) Weight changes in male or female Sprague Dawley rats treated daily with indicated doses of SSI-4 for seven days (n=3 per group). (c-d) Serum profile of indicated enzymes measured on day 8 in male or female Sprague Dawley rats treated daily with indicated doses of SSI-4 for seven days (n=3 per group). (BUN= blood urea nitrogen; AST= aspartate aminotransferase; ALT= alanine aminotransferase; ALK/Phos= alkaline phosphatase).
Sprague dawley rats (6-8 weeks old M/F) were orally gavaged with SS1-4 at the indicated dose daily, for a duration of seven days. For each dose levels 3 male and 3 females were placed on study. Rats were clinically observed and weighed daily. On day 8 rats were euthanatized and blood was collected by cardiac puncture. Blood chemistry was measured by STAT Veterinary laboratory (San Diego CA).

Regarding `CNC(=O)c1ccnc(NC(=O)N2CCC(Oc3ccccc3Cl)CC2)c1` [SSI-4], the IC50 in data set [1] stood at 0.009 µM; in data set [2], 1.9 nM. Also, the “growth of A498 ccRCC tumors” value in data set [3] is given as “growth inhibition”. In data set [4] (all doses tested, males and females, day 8), the liver enzymes entry is listed as “No abnormalities”. For the same compound, the “changes in body weight” value in data set [4] (females, all doses tested, daily oral for one week) is “no significant changes”; in data set [4] (males, daily oral dose of 300mg/kg for one week), < 10%.

Broadly, the IC50 is the concentration needed to halve the response being measured. A low value points to higher potency.
